From patent publication US20240116971A1, “NMN AND DERIVATIVES FOR ITS USE IN THE TREATMENT OF DEPRESSION AND/OR ANXIETY IN PATIENTS HAVING A FORM OF PARKINSONISM” (Nuvamid SA, priority 2021, published 2024)

Experiments:
Format in all cases: in vivo, human
[1] = Blood level of NMN and NAD
Text: The secondary objectives describe the characteristics of the patients who participated in the research, and aim at studying the pharmacokinetics of NMN in daily oral use and its impact on increasing NAD+ levels, and, in a preliminary way, at evaluating the potential benefits of NMN supplementation on the symptomatology related to multi-systemic atrophy syndrome MSA such as activities of daily living, motor disorders, orthostatic hypotension and autonomy using the validated […] scale. [table] Also, an aliquot of serum is stored at the laboratory at -80° C. for the determination of the patient's physiological NAD+ (Baseline) level by the promoter. The results are sent to the investigating responsible for checking these parameters (regarding the laboratory's standards) and validating or not the patient's eligibility. […] Also, an aliquot of acidified whole blood is stored at the AML at -80° C. for the determination of NMN metabolites. The hemodynamic constants (BP and HR standing up/lying down) are taken and entered in the patient's follow-up notebook by the nurse. The nurse also questions the patient on the possible occurrence of adverse events and checks the patient's compliance with treatment by filling in his or her follow-up notebook and pill box. On receipt, the investigating physician check the results: the blood parameters must be within the reference value limits and/or judged by the investigating physician as not clinically relevant. Otherwise, the patient is summoned without delay by the investigating physician to leave the study prematurely.

MSA patients [2] = assay: Quality of life, MSA-QoL self-questionnaire; settings: for MSA-QoL non-motor subscore, average difference compared to V1: V1 30.4±10.0 points; for MSA-QoL Motor subscore, average difference compared to V1: V1 40.1±19.0 points
Text: [table] At this visit, the investigator checks the patient's completed follow-up notebook (compliance, adverse event (AE), treatments) and carries out an interrogation and clinical examination, including the taking of standing and lying hemodynamic constants (SAP/DAP and HR) in order to check the tolerance and the possible occurrence of an adverse event. Compliance is also monitored. The patient is asked to complete a quality of life questionnaire (MSA-QoL). Quality of life—MSA—QoL: the MSA-QoL scale is organized into 4 subsections: • Motor sub-score: items 1 to 14; • Non-motor sub-score: items 15 to 26; • Emotional/social sub-score: items 27 to 40. • Overall satisfaction of quality of life of 100 mm to describe the patient's overall satisfaction with their life.

MSA patients [3] = assay: Safety of NMN dietary supplement: hemodynamic, blood count, inflammatory, liver, kidney, cardiac/muscular, metabolic parameters, adverse events
Experimental: The purpose of the multicentric, prospective, non-randomised, non-controlled pilot study is to study the efficacy of NMN administration in MSA patients (45-80 years old) at a larger scale. In this study, the safety, tolerance and efficacy of a dose of NMN are evaluated. The amount of NMN to be ingested daily is divided into 2 capsules (Size 0). Each patient takes 2 capsules/day in the morning during breakfast with a big glass of water. The composition of each capsule is as follows:
The main objectives of the study are to evaluate the safety of the dietary supplement during a 12-week supplementation. The safety of the food supplement is assessed in terms of: • a) Hemodynamic parameters: • Blood pressure (systolic and diastolic arterial pressure (SAP, DAP) standing up and lying down (2 min)), • Heart rate (HR, standing up/lying down (2 min)). • b) Blood Formula Counting: • Hematies, • Leukocytes (lymphocytes, monocytes, neutrophils, basophils, eosinophils), • Platelets. • c) Inflammatory parameters: • C Reactive Protein (CRP), • Sedimentation rate. • d) Liver function: • ASAT, • ALAT, • gamma GT, • Alkaline phosphatases. • e) Kidney function: • Creatinemia, • Urea. • Cardiac and muscular function: • Creatine Phosphokinase (CPK). • f) Metabolic/biochemical parameters: • lonogram (Na+, K+, Cl−), • glycated hemoglobin • g) Occurrence of undesirable effects.
48 hours before each follow-up visit by the neurological investigator, a nurse visits the patient's home to take blood samples and measure the hemodynamic parameters [SAP/DAP lying down, standing up (2 min) and HR lying down, standing up (2 min)]. In addition, during each visit, the possible occurrence of adverse events will be asked to patients. The nurse visits are scheduled between D-7 and D-2 to confirm the patient's inclusion, then at D13 (for visit V2 at D15), D43 (for visit V3 at D45) and D88 (for the end of study visit at D90). No fasting was required for the biologic assessments. To ensure the safety of the food supplement, all biological parameters must be within the limits of reference values and/or judged by the investigating physician as non-clinical.
Safety biology, pharmacokinetics and hemodynamic constants (D13; D43; D88): A blood sample is collected by a nurse at patient's home 48 hours before the visit to the investigational site (D13; D43 and D88) so that the investigator has the biological safety results on the day of the consultation.
The required bioassessment is the same as the inclusion one (D-2) and include: • Complete and differential Blood cells Counts, • Metabolic/biochemical parameters: lonogram (Na+, K+, Cl−), Glycated hemoglobin (HbA1C) • Inflammatory assessment: CRP, sedimentation rate, • Liver check-up: AST, ALT, gamma GT, ALP, bilirubin • Renal assessment: Creatinemia, urea, • Cardiac and muscular assessment: CPK;
Also, an aliquot of acidified whole blood is stored at the AML at −80° C. for the determination of NMN metabolites. The hemodynamic constants (BP and HR standing up/lying down) are taken and entered in the patient's follow-up notebook by the nurse. The nurse also questions the patient on the possible occurrence of adverse events and checks the patient's compliance with treatment by filling in his or her follow-up notebook and pill box. On receipt, the investigating physician check the results: the blood parameters must be within the reference value limits and/or judged by the investigating physician as not clinically relevant. Otherwise, the patient is summoned without delay by the investigating physician to leave the study prematurely.
At D90, the safety and tolerance of the study product is assessed by the investigating physician during the visits provided for in the protocol by means of an interview with the patient, information gathered by the volunteer in the daily diary, a clinical examination (including blood pressure and heart rate measurements) and a blood test. All patients continued to take their usual treatment for MSA.

[4] = 3-month supplementation with NMN (400 mg/day) per os, MSA patients, mITT and PP
[5] = at 3 months, mITT and PP populations
[6] = mITT population, V3, p-value >0.05
[7] = mITT population, V4, p-value >0.05

For NC(=O)c1ccc[n+]([C@@H]2O[C@H](COP(=O)([O-])O)[C@@H](O)[C@H]2O)c1 [beta-NMN, nicotinamide mononucleotide], the “blood levels of NAD” value [1, 4] was “gradually increases”, the “blood levels of NMN” value [1, 4] was “gradually increases” and the “blood NAD level, mean value” ([1]; mITT population, V4 (n=8 subjects), NMN 400 mg/day per os, V1 16183.57±4205.09 (n=4 subjects)) was 29194.12 ± 9706.95 ng/mL. The “Overall satisfaction with quality of life, scaling” value (MSA patients [2]; PP population, V3 and V4 compared to V1) was “slight increase”, the “MSA-QoL Emotional/Social sub-score” value (MSA patients [2]; [5]) was “improvement” and the “MSA-QoL Motor subscore” value (MSA patients [2]; [5]) was “improvement”. For the same molecule, the MSA-QoL non-motor subscore (MSA patients [2]; [5]) was “improvement”, the “Overall satisfaction with quality of life, scaling” value (MSA patients [2]; mITT population, V2, V3 and V4 compared to V1, p-value >0.05) was “very slight decrease” and the “MSA-QoL non-motor subscore, average difference compared to V1” value (MSA patients [2]; mITT population, V2, 0 to 48, higher is worse, p-value >0.05) was −2.0 points. The “MSA-QoL Motor subscore, average difference compared to V1” value (MSA patients [2]; mITT population, V2, 0 to 56, higher is worse, p-value >0.05) was −1.3 points, the “MSA-QoL non-motor subscore, average difference compared to V1” value (MSA patients [2]; [6]) was −5.2 points and the “MSA-QoL Motor subscore, average difference compared to V1” value (MSA patients [2]; [6]) was −5.6 points. For the same molecule, the “MSA-QoL non-motor subscore, average difference compared to V1” value (MSA patients [2]; [7]) was −4.1 points, the “MSA-QoL Motor subscore, average difference compared to V1” value (MSA patients [2]; [7]) was −5.1 points and the “ionogram and glycated hemoglobin level” value (MSA patients [3]; 3-month follow-up) was “stable”. For the same molecule, the “impact on liver function” value (MSA patients [3]; 3 months) was “does not thus have an impact”, the induction of inflammation (MSA patients [3]; 3 months) was “does not thus induce inflammation” and the creatine phosphokinase (MSA patients [3]; 3 months of follow-up) was “relatively stable”. For the same molecule, the liver parameters (MSA patients [3]; 3 months of follow-up) was “relatively stable”, the renal parameters (MSA patients [3]; 3 months of follow-up) was “relatively stable” and the inflammatory parameters (MSA patients [3]; 3 months of follow-up, within or outside reference values, not clinically relevant) was “relatively stable”. For the same molecule, the blood count values (MSA patients [3]; 3 months of follow-up, within reference limits or not clinically relevant) was “relatively stable”, the “safety and tolerance, conclusion” value (MSA patients [3]; MSA patients, 3 months) was “safe and well-tolerated” and the “increase in average blood pressure and heart rate” value (MSA patients [3]; NMN 400 mg/day, 3 months) was “does not thus lead to an increase”. For the same molecule, the “mean heart rate (HR)” value (MSA patients [3]; NMN 400 mg/day, 3 months, V0-V4 comparison p-value=0.2969) was “normal and stable over time”, the “Mean systolic blood pressure” value (MSA patients [3]; NMN 400 mg/day, 3 months, V0-V4 comparison p-value=0.6172) was “normal and stable over time” and the “Mean diastolic blood pressure” value (MSA patients [3]; NMN 400 mg/day, 3 months, V0-V4 comparison p-value=0.6719) was “normal and stable over time”. For the same molecule, the “concentration of electrolytes (Na+, K+, Cl−) and glycemia” value (MSA patients [3]; after 3 months of treatment) was “does not affect” and the “impact on heart and muscle function” value (MSA patients [3]; after 3 months of treatment) was “does not have an impact”.
